This is an account of results in ChEMBL document CHEMBL1201862, “PubChem BioAssay data set” (2004).

Assay in all cases: NCI-60 cell line screen, 48 h
Experiment [1] deals with CCRF-CEM.
In experiment [2] the test system is HCT-15.
For experiment [3], the system named is M14.
Experiment [4] deals with SR.
In experiment [5] the test system is EKVX.
In experiment [6] the test system is HCT-116.
Experiment [7] concerns SF-295.
Experiment [8] relates to OVCAR-3.
For experiment [9], the system named is RPMI-8226.
The test system of experiment [10] is SF-268.
Experiment [11] has as its system LOX IMVI.
For experiment [12], the system named is A549.
The subject of experiment [13] is HT-29.
The test system of experiment [14] is OVCAR-4.
Experiment [15] concerns SK-MEL-5.
Experiment [16] relates to OVCAR-5.
Experiment [17] concerns A498.

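Results reflect a 48-hour exposure of cells in 96-well plates to compound at five concentrations. Here, GI50 denotes the concentration required for 50% inhibition of growth.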 Active and inactive are the calls of the source. Cut-off read from the data, not from the text of the source: active = GI50 up to about 1.1 µM and inactive = higher.

Turning to `N#CCc1nnc(N)o1`, the GI50 in experiment [1] was > 100 µM (inactive); in experiment [2], over 100 µM; in experiment [3] it was > 100 µM (inactive); in [4] it was > 100 µM (inactive); in experiment [5], > 100 µM (inactive); in [6], > 100 µM (inactive). Moreover, the GI50 in experiment [7], in experiment [8], in [9], in experiment [10], in experiment [11] and in experiment [12] was > 100 µM (inactive) throughout.
In the case of `CCCCC/C=C1\CCC(CN(C)C)C1=O` (stereo not given), the GI50 is 1.56 µM (inactive) in experiment [1]; 3.17 µM in [2]; 28.2 µM (inactive) in experiment [13]; 14.1 µM (inactive) in experiment [3]; 3.79 µM (inactive) in [4]; 26 µM (inactive) in [5]. Also, the GI50 is 11.8 µM (inactive) in experiment [6]; 20 µM (inactive) in experiment [7]; 15.6 µM (inactive) in experiment [8]; 0.386 µM (active) in experiment [9]; 19.1 µM (inactive) in experiment [10]; 20.1 µM (inactive) in experiment [14]. Further, the GI50 in experiment [15] was 18.2 µM (inactive); in experiment [11] it was 6.79 µM (inactive); in experiment [16], 18.6 µM (inactive); in experiment [12], 34.1 µM (inactive).
With `O=C(COc1ccc(Cl)cc1)N1N=C(c2ccc([N+](=O)[O-])o2)CC1(O)c1ccccc1` (stereo not given), the GI50 was 3.05 µM in experiment [2]; 4.81 µM (inactive) in [13]; 11.8 µM (inactive) in experiment [3]; 2.59 µM (inactive) in experiment [4]; 5.27 µM (inactive) in experiment [6]; 10.7 µM (inactive) in experiment [7]. For the same compound, the GI50 in experiment [8] is 3.77 µM (inactive); in [9], 2.28 µM (inactive); in [10], 10.5 µM (inactive); in [14], 7.11 µM (inactive); in [11], 10.8 µM (inactive); in experiment [16], 15.8 µM (inactive). Besides, the GI50 in experiment [12] is 10 µM (inactive).
For the compound `CN(C)CCn1c2ccccc2c2nc3cc4ccccc4cc3nc21`, the GI50 is 2.88 µM (inactive) in [1]; 4.81 µM in experiment [2]; 0.643 µM (active) in experiment [13]; 4.1 µM (inactive) in [3]; 12.6 µM (inactive) in [5]; 3.79 µM (inactive) in experiment [6]. In addition, the GI50 was 4.05 µM (inactive) in experiment [7]; 10.6 µM (inactive) in experiment [8]; 2.34 µM (inactive) in experiment [17]; 2.91 µM (inactive) in experiment [9]; 2.14 µM (inactive) in experiment [10]; 7.91 µM (inactive) in [14]. For the same compound, the GI50 is 10.1 µM (inactive) in experiment [15], 3.18 µM (inactive) in [11] and 3.67 µM (inactive) in experiment [12].
As for `COc1ccc(C2=C3c4cc(OC)c(OC)cc4CCN3C(=S)SS2)cc1OC`, the GI50 is 46.5 µM (inactive) in experiment [1]; 77.6 µM in experiment [2]; 72.8 µM (inactive) in experiment [13]; 98.2 µM (inactive) in experiment [3]; > 100 µM (inactive) in experiment [5]; > 100 µM (inactive) in [6]. Also, the GI50 in [7] was > 100 µM (inactive); in [8], > 100 µM (inactive); in [17], 46.6 µM (inactive); in [9], 63.2 µM (inactive); in experiment [10] it was 72.1 µM (inactive); in [14] it was 48.4 µM (inactive). Besides, the GI50 in [15] is 13.3 µM (inactive); in [11] it was 40.8 µM (inactive); in experiment [16], > 100 µM (inactive); in experiment [12], > 100 µM (inactive).
On to `Cc1c(CCl)c(=O)oc2c(C)c3occ(CCl)c(=O)c3cc12`, for which the GI50 was 3.18 µM (inactive) in experiment [1]; 25 µM in experiment [2]; 17 µM (inactive) in experiment [3]; > 100 µM (inactive) in [5]; > 100 µM (inactive) in [7]; > 100 µM (inactive) in [8]. The GI50 in experiment [17] is > 100 µM (inactive); in experiment [9] it was 8.69 µM (inactive); in experiment [10] it was 24.7 µM (inactive); in experiment [15], > 100 µM (inactive); in experiment [11], 14.9 µM (inactive); in [16] it was > 100 µM (inactive). Besides, the GI50 in experiment [12] was > 100 µM (inactive).
